The values below are quoted from earlier work in patent publication US20240041983A1, “IMPROVED PHARMACEUTICAL FORMULATIONS OF GLP-1 RECEPTOR AGONISTS” (CYPRUMED GMBH, priority 2020, published 2024).

The conditions of this data set: in humans.

semaglutide: the t½ is ~1 week.
